Data on 22 compounds can be found in patent publication US4632928A, “Pyrazole derivatives with an ergoline skeleton, their acid addition salts, and a process for the preparation thereof” (Richter Gedeon Vegyeszeti Gyar R.T., priority 1983, dated 1986).

Data set [1] relates to PGF2alpha receptor. In words: In vivo PGF2alpha antagonist effect in urethane anesthesized rabbits. To be noted: PGF2alpha 6.25 μg/kg iv; for Duration of the effect: rabbits; for Inhibition: urethane anesthesized rabbits. The source says:
(§1) In vitro, in the isolated rat uterus (Table 1), and in vivo in rabbits under urethane anesthesis (Table 2) they antagonize the uterine contraction inducing activity of PGF2alpha. The competitive antagonist effect of the compounds is selective and protracted, while it fails to influence the uterine contraction inducing effect of other endogeneous compounds, i.e. oxytocin. This would enable their use as spasmolytic agents of new mechanism of action in the field of obstetrics and gynecology for the treatment of dysmenorrhea and anovulation, and the prevention of imminent and habitual abortus and miscarriage.
In vivo PGF2alpha antagonist effect of pyrazole deriva-
tives of general formula (I) in urethane (1.2 g/kg iv)
1. D. F. Hawkins: Agents Acting on the Uterus.
In: Evaluation of Drug Activities: Pharma-
cometrics. Edited by R. Lawrence and A. L.
Bacharach. Academic Press, London, p. 680 (1964)
2. A. R. Cushny: J. Physiol. 35, 1 (1906)
PGF2alpha standard dose: 6.25 μg/kg iv

A short description of data set [2]: Acute toxicity in CFLP mice (Probite analysis according to Litchfield-Wilcoxon). To be noted: mouse, in vivo. The source says: Acute toxicity of pyrazole derivatives of
general formula (I) in CFLP mice
Method: Probite analysis according to Litchfield-
Wilcoxon [J. Pharm. Exp. Ther. 96, 99 (1949)]

Data set [3] concerns the target T1, PGF2alpha receptor (Rattus norvegicus, UniProt P43118).
T1 construct: in the isolated rat uterus; from tissue; host or cells: isolated rat uterus
In words: PGF2alpha antagonist effect in vitro in isolated rat uterus. To be noted: compound 2 × 10^-6 M, PGF2alpha 1.4 × 10^-7 M, read-out: Percentual inhibition at concentrations of 2 × 10^-6 M against 1.4 × 10^-7 M PGF2alpha.
From the text: as §1
PGF2alpha antagonist effect of the compounds of general
formula (I) in vitro in isolated rat uterus
Method: 1. J. H. Gaddum and K. A. Hammed:
2. O. Arunlakshana and H. O Schild:
Compound Percentual inhibition at concentrations

A further data set has as its system uterine musculature. To be noted: known compounds with ergoline skeleton; cited from earlier work.

Counter-ions that a name gives are not always drawn. Like-named read-outs stand apart in the source and are kept apart here. Some results are limits rather than exact numbers.

T1 sequence (P43118 whole entry): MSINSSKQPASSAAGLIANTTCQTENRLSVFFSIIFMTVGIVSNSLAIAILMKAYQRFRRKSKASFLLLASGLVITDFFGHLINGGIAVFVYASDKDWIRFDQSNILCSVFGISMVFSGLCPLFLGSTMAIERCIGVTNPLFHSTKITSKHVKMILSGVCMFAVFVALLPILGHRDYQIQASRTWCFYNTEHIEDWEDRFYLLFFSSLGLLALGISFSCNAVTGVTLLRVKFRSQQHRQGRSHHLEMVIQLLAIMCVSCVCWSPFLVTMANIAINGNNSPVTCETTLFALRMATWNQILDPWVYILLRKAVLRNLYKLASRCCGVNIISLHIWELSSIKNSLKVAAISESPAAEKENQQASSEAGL

For the compound `Cc1nn(C[C@@H]2C=C3c4cccc5[nH]cc(c45)C[C@H]3N(C)C2)c2c1CCC2` [Example 1, 8-beta-[3(5)-Methyl-cyclopentano/4,5(3,4)/pyrazol-1-yl-methylene]-6-methyl-ergol-9-ene], the “Duration of the effect” value in the data set on PGF2alpha receptor [1] (0.3 mg/kg intraduodenal) and with PGF2alpha receptor [1] (1.0 mg/kg intraduodenal) was more than 180 min in each case. The Inhibition (in general, the change of the read-out against control, counted positive when it falls) in the data set on PGF2alpha receptor [1] (0.3 mg/kg intraduodenal) was found to be 38%; in the data set on PGF2alpha receptor [1] (1.0 mg/kg intraduodenal) it was 49%. The LD50 – broadly, the dose expected to kill half of the subjects tested – in data set [2] (ip, read-out: LD50 ip) stood at 3100 mg/kg; in data set [2] (po, read-out: LD50 po), 2450 mg/kg. For the same compound, the inhibition at 2 µM on PGF2alpha receptor [3] stood at 70%.

With `Cc1nn(C[C@@H]2C=C3c4cccc5c4c(cn5C)C[C@H]3N(C)C2)c2c1CCC2` [Example 2, 8-beta-[3(5)-Methyl-cyclopentane/4,5(3,4)/pyrazol-1-yl-methylene]-1,6-dimethyl-ergol-9-ene hydrogen maleinate], the 50% lethal dose (LD50) in data set [2] (ip, read-out: LD50 ip) is more than 100 mg/kg; in data set [2] (po, read-out: LD50 po), more than 100 mg/kg. Moreover, the inhibition at 2 µM at PGF2alpha receptor [3] was 58%.

On to `Cc1nn(C[C@@H]2C[C@@H]3c4cccc5[nH]cc(c45)C[C@H]3N(C)C2)c2c1CCC2` [Example 4, 8-beta-[3(5)-Methyl-cyclopentano/4,5(3,4)/pyrazol-1-yl-methylene]-6-methyl-ergoline], for which the LD50 in data set [2] (ip, read-out: LD50 ip) is more than 100 mg/kg; in data set [2] (po, read-out: LD50 po), more than 100 mg/kg.

`CN1C[C@H](Cn2nc(-c3cccnc3)c3c2CCC3)C=C2c3cccc4[nH]cc(c34)C[C@H]21` [Example 5, 8-beta-[3(5)-(3-Pyridyl)-cyclopentano/4,5(3,4)/pyrazol-1-yl-methylene]-6-methyl-ergol-9-ene]: the LD50 in data set [2] (ip, read-out: LD50 ip) was more than 100 mg/kg; in data set [2] (po, read-out: LD50 po) it was more than 100 mg/kg. At PGF2alpha receptor [3], the inhibition at 2 µM came to 46%.

`Cc1nn(C[C@@H]2C=C3c4cccc5[nH]cc(c45)C[C@H]3N(C)C2)c2c1C(=O)CC2` [Example 6, 8-beta-[3(6)-Methyl-4(5)-oxo-cyclopentano/4,5(3,4)/pyrazol-1-yl-methylene]-6-methyl-ergol-9-ene]: the LD50 in data set [2] (ip, read-out: LD50 ip) was more than 200 mg/kg; in data set [2] (po, read-out: LD50 po), 1000 mg/kg.

With `Cc1nn(C[C@@H]2C=C3c4cccc5[nH]cc(c45)C[C@H]3N(C)C2)c2c1C(O)CC2` (stereo partly drawn) [Example 7, 8-beta-[3(6)-Methyl-4(5)-hydroxy-cyclopentano/4,5(3,4)/pyrazol-1-yl-methylene]-6-methyl-ergol-9-ene], the LD50 is more than 100 mg/kg in data set [2] (ip, read-out: LD50 ip) and more than 100 mg/kg in data set [2] (po, read-out: LD50 po).

Turning to `Cc1nn(C[C@@H]2C=C3c4cccc5[nH]cc(c45)C[C@H]3N(C)C2)c2c1C(=NO)CC2` [Example 8, 8-beta-[3(6)-Methyl-4(5)-hydroxy-imino-cyclopentano/4,5(3,4)/pyrazol-1-yl-methylene]-6-methyl-ergol-9-ene], the LD50 in data set [2] (ip, read-out: LD50 ip) is more than 100 mg/kg; in data set [2] (po, read-out: LD50 po), more than 100 mg/kg.

For `Cc1nn(C[C@@H]2C=C3c4cccc5[nH]cc(c45)C[C@H]3N(C)C2)c2c1CCCC2` [Example 9, 8-beta-[3(5)-Methyl-cyclohexano/4,5(3,4)/pyrazol-1-yl-methylene]-6-methyl-ergol-9-ene], the “Duration of the effect” value with PGF2alpha receptor [1] (3.0 mg/kg intraduodenal) and with PGF2alpha receptor [1] (10.0 mg/kg intraduodenal) was more than 180 min throughout. For the same compound, the Inhibition with PGF2alpha receptor [1] (3.0 mg/kg intraduodenal) was 58%; in the data set with PGF2alpha receptor [1] (10.0 mg/kg intraduodenal), 68%. Also, the LD50 in data set [2] (ip, read-out: LD50 ip) is more than 100 mg/kg; in data set [2] (po, read-out: LD50 po) it was more than 100 mg/kg. For the same compound, the inhibition at 2 µM on PGF2alpha receptor [3] turned out to be 40%.

For the compound `Cc1nn(C[C@@H]2C=C3c4cccc5[nH]cc(c45)C[C@H]3N(C)C2)c2c1C(=O)CC(C)(C)C2` [Example 10], in the data set on PGF2alpha receptor [1] (20.0 mg/kg intraduodenal), the “Duration of the effect” value turned out to be 90 min. This compound also yielded an Inhibition with PGF2alpha receptor [1] (20.0 mg/kg intraduodenal) of 42%. The LD50 in data set [2] (ip, read-out: LD50 ip) is more than 100 mg/kg; in data set [2] (po, read-out: LD50 po), more than 100 mg/kg. Besides, the inhibition at 2 µM on PGF2alpha receptor [3] is 66%.

On to `Cc1nn(C[C@@H]2C=C3c4cccc5[nH]cc(c45)C[C@H]3N(C)C2)c2c1C(=NO)CC(C)(C)C2` [Example 11, 8-beta-[3(7),6(4)-Trimethyl-4(6)-hydroxy-imino-cyclohexano/4,5(3,4)/pyrazol-1-yl-methylene]-6-methyl-ergol-9-ene], for which, in the data set with PGF2alpha receptor [1] (20.0 mg/kg intraduodenal), the “Duration of the effect” value is more than 120 min and the Inhibition is 72%. Moreover, in data set [2] (ip, read-out: LD50 ip), the 50% lethal dose (LD50) is more than 100 mg/kg. Also, the LD50 in data set [2] (po, read-out: LD50 po) is more than 100 mg/kg. The inhibition at 2 µM at PGF2alpha receptor [3] worked out at 80%.

With `C=CCc1c(C)nn(C[C@@H]2C=C3c4cccc5[nH]cc(c45)C[C@H]3N(C)C2)c1C` [Example 14, 8-beta-(3,5-Dimethyl-4-allyl-pyrazol-1-yl-methylene)-6-methyl-ergol-9-ene], the 50% lethal dose (LD50) in data set [2] (ip, read-out: LD50 ip) is more than 100 mg/kg; in data set [2] (po, read-out: LD50 po), more than 100 mg/kg. Moreover, the inhibition at 2 µM on PGF2alpha receptor [3] came to 77%.

For `CCOC(=O)c1nn(C[C@@H]2C=C3c4cccc5[nH]cc(c45)C[C@H]3N(C)C2)c(O)c1C` [Example 15, 8-beta-(3-Carbethoxy-4-methyl-5-hydroxy-pyrazol-1-yl-methylene)-6-methyl-ergol-9-ene], the LD50 in data set [2] (ip, read-out: LD50 ip) is more than 100 mg/kg; in data set [2] (po, read-out: LD50 po), more than 100 mg/kg. Also, the inhibition at 2 µM at PGF2alpha receptor [3] came to 40%.

As for `Cc1cc(-c2ccccn2)nn1C[C@@H]1C=C2c3cccc4[nH]cc(c34)C[C@H]2N(C)C1` [Example 16, 8-beta-[3(5)-/2-Pyridyl/-5(3)-methyl-pyrazol-1-yl-methylene]-6-methyl-ergol-9-ene], the 50% lethal dose (LD50) is more than 100 mg/kg in data set [2] (ip, read-out: LD50 ip) and more than 100 mg/kg in data set [2] (po, read-out: LD50 po). The inhibition at 2 µM on PGF2alpha receptor [3] turned out to be 18%.

For `Cc1cc(-c2ccccn2)nn1C[C@@H]1C[C@@H]2c3cccc4[nH]cc(c34)C[C@H]2N(C)C1` [Example 17, 8-beta-[3(5)-/2-Pyridyl/-5(3)-methyl-pyrazol-1-yl-methylene]-6-methyl-ergoline], the results for the “Duration of the effect” value in the data set on PGF2alpha receptor [1] (10.0 mg/kg intraduodenal) and in the data set with PGF2alpha receptor [1] (20.0 mg/kg intraduodenal) were 120 min and more than 150 min, respectively. The Inhibition was 55% in the data set with PGF2alpha receptor [1] (10.0 mg/kg intraduodenal) and 77% in the data set on PGF2alpha receptor [1] (20.0 mg/kg intraduodenal). Moreover, the LD50 in data set [2] (ip, read-out: LD50 ip) is more than 100 mg/kg; in data set [2] (po, read-out: LD50 po), more than 100 mg/kg. Moreover, the inhibition at 2 µM at PGF2alpha receptor [3] is 44%.

Consider `CC(=O)c1c(C)nn(C[C@@H]2C=C3c4cccc5[nH]cc(c45)C[C@H]3N(C)C2)c1C` [Example 18, 8-beta-[3,5-Dimethyl-4-(1-oxo-ethyl)-pyrazol-1-yl-methylene]-6-methyl-ergol-9-ene], for which the 50% lethal dose (LD50) was more than 100 mg/kg in data set [2] (ip, read-out: LD50 ip) and more than 100 mg/kg in data set [2] (po, read-out: LD50 po).

In the case of `Cc1nn(C[C@@H]2C=C3c4cccc5[nH]cc(c45)C[C@H]3N(C)C2)c2c1CCC2` [Hydrogen-fumarate of 1, 8-beta-[3(5)-methyl-cyclopentano/4,5(3,4)/pyrazol-1-yl-methylene]-6-methyl-ergol-9-ene hydrogen fumarate], in the data set with PGF2alpha receptor [1] (3.0 mg/kg intraduodenal), the “Duration of the effect” value was more than 180 min and the Inhibition amounted to 63%.

As to `CC(C)C[C@H]1C(=O)N2CCC[C@H]2[C@]2(O)O[C@](NC(=O)[C@@H]3C=C4c5cccc6[nH]c(Br)c(c56)C[C@H]4N(C)C3)(C(C)C)C(=O)N12` [bromocryptine], the “effect on the uterine musculature” value in the data set with uterine musculature is “uterine relaxants”.

As to `CN1C[C@H](C(=O)N[C@]2(C)O[C@@]3(O)[C@@H]4CCCN4C(=O)[C@H](Cc4ccccc4)N3C2=O)C[C@@H]2c3cccc4[nH]cc(c34)C[C@H]21` [dihydroergotamine], the “effect on the uterine musculature” value with uterine musculature is reported as “uterine relaxants”.

In the case of `C[C@@H](CO)NC(=O)[C@@H]1C=C2c3cccc4[nH]cc(c34)C[C@H]2N(C)C1` [ergometrin], in the data set on uterine musculature, the “effect on the uterine musculature” value is listed as “inducing uterine contraction”.

Consider `CN1C[C@H](C(=O)N[C@]2(C)O[C@@]3(O)[C@@H]4CCCN4C(=O)[C@H](Cc4ccccc4)N3C2=O)C=C2c3cccc4[nH]cc(c34)C[C@H]21` [ergotamine], for which, in the data set with uterine musculature, the “effect on the uterine musculature” value is on record as “inducing uterine contraction”.

As for `CC[C@@H](CO)NC(=O)[C@@H]1C=C2c3cccc4[nH]cc(c34)C[C@H]2N(C)C1` [methylergometrin], the “effect on the uterine musculature” value with uterine musculature is “inducing uterine contraction”.

In the case of hydergine, the “effect on the uterine musculature” value with uterine musculature is reported as “uterine relaxants”.
